Measured values: the NIST ThermoML archive (doi:10.1021/acs.jced.7b00377)
Numbers after ± are expanded uncertainties.

Tests used:
[1] = Liquid; for mass density: 101.33 kPa, Pycnometric method; for vapor or sublimation pressure: Ebulliometric method (Recirculating still)
[2] = refractive index (Na D-line) (dimensionless); settings: 298.15 K; 101.33 kPa; Liquid; Standard Abbe refractometry

SMILES | mass density ([1]; 293.15 K) [kg/m3] | vapor or sublimation pressure ([1]; 381.08 K) [kPa] | refractive index [2] | mass density ([1]; 298.15 K) [kg/m3] | vapor or sublimation pressure ([1]; 390.9 K) [kPa] | vapor or sublimation pressure ([1]; 320.54 K) [kPa] | vapor or sublimation pressure ([1]; 335.1 K) [kPa] | vapor or sublimation pressure ([1]; 344.53 K) [kPa] | vapor or sublimation pressure ([1]; 351.76 K) [kPa] | vapor or sublimation pressure ([1]; 359.38 K) [kPa] | vapor or sublimation pressure ([1]; 370.93 K) [kPa] | vapor or sublimation pressure ([1]; 379.83 K) [kPa] | vapor or sublimation pressure ([1]; 386.16 K) [kPa] | vapor or sublimation pressure ([1]; 393.18 K) [kPa] | vapor or sublimation pressure ([1]; 397.46 K) [kPa] | vapor or sublimation pressure ([1]; 401.87 K) [kPa] | vapor or sublimation pressure ([1]; 405.77 K) [kPa] | vapor or sublimation pressure ([1]; 410.02 K) [kPa]
CC(C)CO [2-methyl-1-propanol] | 801.8 ± 0.6 | 101.33 ± 0.7 | 1.3939 ± 0.0004 | – | – | – | – | – | – | – | – | – | – | – | – | – | – | –
CCCCO [butan-1-ol] | – | – | 1.3971 ± 0.0004 | 809.5 ± 0.6 | 101.33 ± 0.7 | – | – | – | – | – | – | – | – | – | – | – | – | –
CCOCOCC(C)C [1-(ethoxymethoxy)-2-methylpropane] | – | – | 1.3873 ± 0.0004 | 823.8 ± 0.6 | – | 5 ± 0.05 | 10 ± 0.06 | 15 ± 0.09 | 20.02 ± 0.12 | 26.67 ± 0.17 | 39.9 ± 0.23 | 53.33 ± 0.3 | 64.8 ± 0.37 | 79.6 ± 0.44 | 89.9 ± 0.5 | 101.33 ± 0.55 | 112 ± 0.61 | 125 ± 0.67
